The source of these data is patent US10709692B2, “Isoxazolidine derived inhibitors of receptor interacting protein kinase 1 (RIPK1)” (Denali Therapeutics Inc., priority 2015, dated 2020).

As usually defined, the IC50 is the concentration that inhibits the measured activity by half. Read a low IC50 as greater potency in that assay.

The assay has as its target T1, receptor interacting protein kinase 1 (GST-hRIPK1 (8-327)) (Homo sapiens, UniProt Q13546).
T1 construct: GST-hRIPK1 (8-327) enzyme was generated by Proteros GmbH by Baculovirus expression system
T1 sequence (Q13546 8-327): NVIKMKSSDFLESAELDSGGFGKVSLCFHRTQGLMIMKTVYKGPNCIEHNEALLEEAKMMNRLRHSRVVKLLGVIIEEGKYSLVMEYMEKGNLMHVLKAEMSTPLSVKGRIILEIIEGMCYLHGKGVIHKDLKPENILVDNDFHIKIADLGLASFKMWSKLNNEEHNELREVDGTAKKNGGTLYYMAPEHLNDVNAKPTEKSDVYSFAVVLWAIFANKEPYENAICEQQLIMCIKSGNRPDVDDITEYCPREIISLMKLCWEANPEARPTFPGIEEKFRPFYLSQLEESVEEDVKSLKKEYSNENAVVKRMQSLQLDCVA
Description: Fluorescent Polarization Binding (FP Binding) assay. The note with it: 10 nM GST-hRIPK1 (8-327), 5 nM fluorescent-labeled ligand, 30 min at RT. The procedure, abridged: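 Displacement of 5 nM fluorescent ligand from 10 nM GST-hRIPK1 (8-327), 30 min at room temperature in pH 7.5 HEPES buffer, 1% DMSO. Fluorescence polarization read (ex 531/em 595 nm); IC50 fitted from percent inhibition and averaged over at least two independent experiments.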

“And” between values parts separate entries of the source, which are not always exact repeats. Equal entries are not always repeated. Bounds are passed on as bounds.

In the case of `CC1(C(=O)N2OCC[C@H]2c2ccc(F)cc2)CCCO1` (single isomer, unassigned) [Compound 137], the IC50 lay in the range of 1 to 10 µM.
On to `CC(C)(C)C(=O)N1OCC[C@H]1c1ccc(C(F)F)nc1` [Compound 105, 1-[(3S)-3-[6-(difluoromethyl)pyridin-3-yl]-1,2-oxazolidin-2-yl]-2,2-dimethylpropan-1-one], for which the IC50 was less than 1 µM.
For the molecule `CC(C)(C)C(=O)N1OCC[C@H]1c1ccc(C#N)c(F)c1` [Compound 151, 4-[(3S)-2-(2,2-dimethylpropanoyl)-1,2-oxazolidin-3-yl]-2-fluorobenzonitrile], the IC50 is less than 1 µM.
With `CN1CC(C)(C(=O)N2OCC[C@H]2c2ccc(F)cc2)C1` [Compound 42, (3S)-2-(1,3-Dimethylazetidine-3-carbonyl)-3-(4-fluorophenyl)-1,2-oxazolidine], the IC50 is greater than 10 µM.
Under `CC1(C(=O)N2OCC[C@H]2c2ccc(F)cc2)CNC1` [Compound 43, (3S)-3-(4-Fluorophenyl)-2-(3-methylazetidine-3-carbonyl)-1,2-oxazolidine] stands greater than 10 µM.
As for `CC(C)(COC(F)(F)F)C(=O)N1OCC[C@H]1c1cncc(Cl)c1` [Compound 177, 1-[(3S)-3-(5-chloropyridin-3-yl)-1,2-oxazolidin-2-yl]-2,2-dimethyl-3-(trifluoromethoxy) propan-1-one], the figure is less than 1 µM.
Under `Cc1ncc([C@@H]2CCON2C(=O)C(C)C2CC2)cc1F` (single isomer, unassigned) [Compound 217] stands less than 1 µM; under `CC(C)(C(=O)N1OCC[C@H]1c1cc(F)cc(C#N)c1)C(F)F` [Compound 226, 3-[(3S)-2-(3,3-difluoro-2,2-dimethylpropanoyl)-1,2-oxazolidin-3-yl]-5-fluorobenzonitrile], less than 1 µM; under `CC(C)(C)C(=O)N1OCC[C@H]1c1cccc2ccnn12` [Compound 140, 2,2-dimethyl-1-[(3S)-3-{pyrazolo[1,5-a]pyridin-7-yl}-1,2-oxazolidin-2-yl]propan-1-one], less than 1 µM.
Molecule `CC(C)(C)C(=O)N1OCC[C@H]1c1ccc(C(F)F)cc1` [Compound 128, 1-[(3S)-3-[4-(difluoromethyl)phenyl]-1,2-oxazolidin-2-yl]-2,2-dimethylpropan-1-one] displayed an IC50 of less than 1 µM.
Regarding `C[C@H](O)C(=O)N1OCC[C@H]1c1ccccc1` [Compound 15, (2S)-2-Hydroxy-1-[(3S)-3-phenyl-1,2-oxazolidin-2-yl]propan-1-one], the IC50 is greater than 10 µM.
As for `CC(C)(F)C(=O)N1OCC[C@H]1c1ccccc1` [Compound 56, 2-Fluoro-2-methyl-1-[(3S)-3-phenyl-1,2-oxazolidin-2-yl]propan-1-one], the figure is less than 1 µM.
`CC(C)(C)C(=O)N1OCC[C@H]1c1cccc(F)c1F` [Compound 31, 1-[(3S)-3-(2,3-Difluorophenyl)-1,2-oxazolidin-2-yl]-2,2-dimethylpropan-1-one] yielded an IC50 of less than 1 µM.
As for `CC(C)(COC(F)F)C(=O)N1OCC[C@H]1c1ccc(C#N)cc1` [Compound 154, 4-[(3S)-2-[3-(difluoromethoxy)-2,2-dimethylpropanoyl]-1,2-oxazolidin-3-yl]benzonitrile], the figure is less than 1 µM; as for `Cc1ncc([C@@H]2CCON2C(=O)C(C)(C)C(F)F)cc1C#N` [Compound 220, 5-[(3S)-2-(3,3-difluoro-2,2-dimethylpropanoyl)-1,2-oxazolidin-3-yl]-2-methylpyridine-3-carbonitrile], less than 1 µM.
As for `N#Cc1ccc([C@@H]2CCON2C(=O)C2(C3CC3)CC2)cc1` [Compound 158, 4-[(3S)-2-(1-cyclopropylcyclopro-panecarbonyl)-1,2-oxazolidin-3-yl]benzonitrile], the figure is less than 1 µM; as for `CC(CC(F)F)C(=O)N1OCC[C@H]1c1ccc(C#N)cc1` (single isomer, unassigned) [Compound 233], less than 1 µM.
For the molecule `CC(C)(C)C(=O)N1OCC[C@H]1c1c(F)cccc1F` [Compound 68, 1-[(3S)-3-(2,6-Difluorophenyl)-1,2-oxazolidin-2-yl]-2,2-dimethylpropan-1-one], the 50% inhibitory concentration (IC50) was less than 1 µM.
Under `CC(C(=O)N1OCC[C@H]1c1ccc(C#N)cc1)C1CC1` (single isomer, unassigned) [Compound 213] stands less than 1 µM; under `CC(C)(C(=O)N1OCC[C@H]1c1ccc(F)cc1)C1CC1` [Compound 193, 2-cyclopropyl-1-[(3S)-3-(4-fluorophenyl)-1,2-oxazolidin-2-yl]-2-methylpropan-1-one], < 1 µM and 0.005 µM.
As to `O=C(N1OCC[C@H]1c1ccc(F)cc1)C12CC(C1)C2` [Compound 32, (3S)-2-{Bicyclo[1.1.1]pentane-1-carbonyl}-3-(4-fluorophenyl)-1,2-oxazolidine], the IC50 was less than 1 µM.
As for `CC1CC1C(=O)N1OCC[C@H]1c1ccc(C#N)cc1` (single isomer, unassigned) [Compound 216], the figure is 1 to 10 µM; as for `CC1(S(=O)(=O)N2OCC[C@H]2c2ccc(F)nc2)CC1` [Compound 93, 2-fluoro-5-[(3S)-2-[(1-methylcyclopropyl)sulfonyl]-1,2-oxazolidin-3-yl]pyridine], 1 to 10 µM; as for `CC1(C(=O)N2OCC[C@H]2c2ccc(F)cc2)CCOC1` (single isomer, unassigned) [Compound 41], less than 1 µM.
As for `CC(C)(C)C(=O)N1OCC[C@H]1c1ccccc1C#N` [Compound 146, 2-[(3S)-2-(2,2-dimethylpropanoyl)-1,2-oxazolidin-3-yl]benzonitrile], the figure is less than 1 µM.
The molecule `CC(C)(Cn1cccn1)C(=O)N1OCC[C@H]1c1ccc(F)cc1` [Compound 178, 1-[(3S)-3-(4-fluorophenyl)-1,2-oxazolidin-2-yl]-2,2-dimethyl-3-(1H-pyrazol-1-yl)propan-1-one] displayed an IC50 of less than 1 µM.
For `Cn1cc([C@@H]2CCON2C(=O)C(C)(C)C)cc1C#N` [Compound 205, 4-[(3S)-2-(2,2-dimethylpropanoyl)-1,2-oxazolidin-3-yl]-1-methyl-1 h-pyrrole-2-carbonitrile], the half-maximal inhibitory concentration (IC50) was less than 1 µM.
Under `CC(C)(C)C(=O)N1OCC[C@H]1c1cc2ccccn2n1` [Compound 124, 2,2-dimethyl-1-[(3S)-3-{pyrazolo[1,5-A]pyridin-2-yl}-1,2-oxazolidin-2-yl]propan-1-one] stands less than 1 µM; under `COc1ccc([C@@H]2CCON2C(=O)C(C)(C)C)cn1` [Compound 145, 1-[(3S)-3-(6-methoxypyridin-3-yl)-1,2-oxazolidin-2-yl]-2,2-dimethylpropan-1-one], less than 1 µM; under `Cc1cncc([C@@H]2CCON2C(=O)C(C)(C)C)n1` (single isomer, unassigned) [Compound 107], less than 1 µM.
As for `CC(C(=O)N1OCCC1c1ccc(C#N)cc1)C(F)F` (single isomer, unassigned) [Compound 91], the figure is less than 1 µM.
Under `CC(C(=O)N1OCC[C@H]1c1ccc(F)nc1)C(F)(F)F` (single isomer, unassigned) [Compound 163] stands less than 1 µM; under `CC(C)(C)C(=O)N1OCC[C@H]1c1ccc(F)nc1` (single isomer, unassigned) [Compound 61], < 1 µM and 0.028 µM.
For `CC(C)(C)C(=O)N1OCC[C@H]1c1nc(C(F)(F)F)cs1` [Compound 123, 2,2-dimethyl-1-[(3S)-3-[4-(trifluoromethyl)-1,3-thiazol-2-yl]-1,2-oxazolidin-2-yl]propan-1-one], the IC50 was in the range of 1 to 10 µM.
Under `CC(C)(C)C(=O)N1OCC[C@@H]1c1ccc(F)nc1` (single isomer, unassigned) [Compound 62] stands 1 to 10 µM; under `CC(C)(C)C(=O)N1OCC[C@H]1c1ccc([N+](=O)[O-])nc1` [Compound 223, 2,2-dimethyl-1-[(3S)-3-(6-nitropyridin-3-yl)-1,2-oxazolidin-2-yl]propan-1-one], less than 1 µM; under `CC(C(=O)N1OCC[C@H]1c1ccc(F)cc1)C(F)(F)F` (single isomer, unassigned) [Compound 94], less than 1 µM.
Take `CC(C)(C)C(=O)N1OCC[C@H]1c1ccc(C#N)nc1` [Compound 143, 5-[(3S)-2-(2,2-dimethylpropanoyl)-1,2-oxazolidin-3-yl]pyridine-2-carbonitrile]: the IC50 was less than 1 µM.
The molecule `CC(C)(C)C(=O)N1OCC[C@H]1c1ccc(F)cc1F` [Compound 135, 1-[(3S)-3-(2,4-difluorophenyl)-1,2-oxazolidin-2-yl]-2,2-dimethylpropan-1-one] returned an IC50 of less than 1 µM.
Under `O=C(C1CCO1)N1OCC[C@H]1c1ccccc1` (single isomer, unassigned) [Compound 53] stands 1 to 10 µM; under `CC(C)(C)C(=O)N1OCC[C@H]1c1ccc(Cl)cc1` [Compound 47, 1-[(3S)-3-(4-Chlorophenyl)-1,2-oxazolidin-2-yl]-2,2-dimethylpropan-1-one], less than 1 µM.
Molecule `CC(CC(F)F)C(=O)N1OCC[C@H]1c1ccc(C#N)cc1` (single isomer, unassigned) [Compound 232] returned an IC50 of less than 1 µM.
As for `CC(C)(C)C(=O)N1OCC[C@H]1c1ncc(Cl)cc1F` [Compound 121, 1-[(3S)-3-(5-chloro-3-fluoropyridin-2-yl)-1,2-oxazolidin-2-yl]-2,2-dimethylpropan-1-one], the figure is less than 1 µM.
